Experimental data taken from PubChem BioAssay (NCI).
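A five-concentration, 48-hour dose response in 96-well plates underlies each endpoint, interpolated linearly between surrounding concentrations. GI50 = concentration required for 50% inhibition of growth. TGI is the concentration that stops growth completely.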 Where a SMILES comes first, the peptide text is derived from it. The star is where a group is joined. OBn = c1ccc(CO*)cc1

How the values were obtained:
Assay in all cases: inhibition of tumour cell growth, NCI panel, 48 h
SF-295 CNS = test system: SF-295 CNS
HT29 colon = test system: HT29 colon
ACHN renal = test system: ACHN renal
CAKI-1 renal = test system: CAKI-1 renal
A549 NSCLC = test system: A549 NSCLC
RPMI-8226 leukemia = test system: RPMI-8226 leukemia
NCI-H460 lung = test system: NCI-H460 lung
K-562 leukemia = test system: K-562 leukemia
M14 melanoma = test system: M14 melanoma
SF-268 CNS = test system: SF-268 CNS
HCT-116 colon = test system: HCT-116 colon
OVCAR-8 ovarian = test system: OVCAR-8 ovarian
MDA-N = test system: MDA-N
MDA-MB-435 = test system: MDA-MB-435
NCI-H522 lung = test system: NCI-H522 lung
MOLT-4 leukemia = test system: MOLT-4 leukemia
MCF7 breast = test system: MCF7 breast
SN12C renal = test system: SN12C renal
HL-60(TB) leukemia = test system: HL-60(TB) leukemia
KM12 colon = test system: KM12 colon
OVCAR-3 ovarian = test system: OVCAR-3 ovarian
HCT-15 colon = test system: HCT-15 colon
SK-MEL-5 melanoma = test system: SK-MEL-5 melanoma
SW-620 colon = test system: SW-620 colon
UO-31 renal = test system: UO-31 renal
786-0 renal = test system: 786-0 renal
COLO 205 colon = test system: COLO 205 colon
CCRF-CEM leukemia = test system: CCRF-CEM leukemia
T-47D breast = test system: T-47D breast
UACC-257 melanoma = test system: UACC-257 melanoma
LOX IMVI melanoma = test system: LOX IMVI melanoma
SNB-75 CNS = test system: SNB-75 CNS
OVCAR-5 ovarian = test system: OVCAR-5 ovarian
NCI-H23 lung = test system: NCI-H23 lung
U251 CNS = test system: U251 CNS
IGROV1 ovarian = test system: IGROV1 ovarian
SF-539 CNS = test system: SF-539 CNS
OVCAR-4 ovarian = test system: OVCAR-4 ovarian
SK-MEL-28 melanoma = test system: SK-MEL-28 melanoma
RXF 393 renal = test system: RXF 393 renal
NCI-H226 lung = test system: NCI-H226 lung
SK-OV-3 ovarian = test system: SK-OV-3 ovarian
HCC-2998 colon = test system: HCC-2998 colon
HOP-62 NSCLC = test system: HOP-62 NSCLC
SR leukemia = test system: SR leukemia
BT-549 breast = test system: BT-549 breast
A498 renal = test system: A498 renal
EKVX NSCLC = test system: EKVX NSCLC
UACC-62 melanoma = test system: UACC-62 melanoma
SK-MEL-2 melanoma = test system: SK-MEL-2 melanoma
MALME-3M melanoma = test system: MALME-3M melanoma
DU-145 prostate = test system: DU-145 prostate
HOP-92 NSCLC = test system: HOP-92 NSCLC
NCI/ADR-RES ovarian = test system: NCI/ADR-RES ovarian
PC-3 prostate = test system: PC-3 prostate
TK-10 renal = test system: TK-10 renal
HS 578T breast = test system: HS 578T breast
SNB-19 CNS = test system: SNB-19 CNS
MDA-MB-231 breast = test system: MDA-MB-231 breast

O=C(O)CC(NC(=O)CP(=O)(O)O)C(=O)O.[NH-]C1CCCCC1[NH-].[Pt+2] (stereo unspecified)
GI50 (SF-295 CNS): 56.3 µM
GI50 (HT29 colon): 56.3 µM
GI50 (ACHN renal): 84.7 µM
GI50 (CAKI-1 renal): 96.2 µM
GI50 (A549 NSCLC): 56.4 µM
GI50 (RPMI-8226 leukemia): 5.93 µM
GI50 (NCI-H460 lung): 42.2 µM
GI50 (K-562 leukemia): 5.38 µM
GI50 (M14 melanoma): 77.2 µM
GI50 (SF-268 CNS): 78.8 µM
GI50 (HCT-116 colon): 30.4 µM
GI50 (OVCAR-8 ovarian): 74.4 µM
GI50 (MDA-N): 70.5 µM
GI50 (MDA-MB-435): 75.9 µM
GI50 (NCI-H522 lung): 60.8 µM
GI50 (MOLT-4 leukemia): 0.675 µM
TGI (MOLT-4 leukemia): 31.4 µM
GI50 (MCF7 breast): 75.8 µM
GI50 (SN12C renal): 96.6 µM
GI50 (HL-60(TB) leukemia): 40.2 µM
GI50 (KM12 colon): 84.1 µM
GI50 (OVCAR-3 ovarian): 88.3 µM
GI50 (HCT-15 colon): 67.9 µM
GI50 (SK-MEL-5 melanoma): 70.2 µM
GI50 (SW-620 colon): 19.6 µM
GI50 (UO-31 renal): 41.3 µM
GI50 (786-0 renal): 52 µM
GI50 (COLO 205 colon): 51 µM
GI50 (CCRF-CEM leukemia): 18 µM
GI50 (T-47D breast): 94.7 µM

COc1ccc(-c2cn(-c3cccc(C(=O)/C=C/c4ccc(O)c(OC)c4)c3)c(=O)[nH]2)cc1
GI50 (SF-295 CNS): 11.2 µM
TGI (SF-295 CNS): > 85.4 µM
GI50 (UACC-257 melanoma): 8.03 µM
TGI (UACC-257 melanoma): 39.3 µM
GI50 (HT29 colon): 2.99 µM
TGI (HT29 colon): > 22.7 µM
GI50 (LOX IMVI melanoma): 2.21 µM
TGI (LOX IMVI melanoma): 6.02 µM
GI50 (SNB-75 CNS): 4.75 µM
TGI (SNB-75 CNS): > 80.2 µM
GI50 (ACHN renal): 2.55 µM
TGI (ACHN renal): 6.22 µM
GI50 (CAKI-1 renal): 5.79 µM
TGI (CAKI-1 renal): 50.4 µM
GI50 (A549 NSCLC): 3.64 µM
TGI (A549 NSCLC): > 53 µM
GI50 (RPMI-8226 leukemia): 1.35 µM
TGI (RPMI-8226 leukemia): 3.68 µM
GI50 (NCI-H460 lung): 3.21 µM
TGI (NCI-H460 lung): 10.4 µM
GI50 (K-562 leukemia): 4.71 µM
TGI (K-562 leukemia): > 37.7 µM
GI50 (OVCAR-5 ovarian): 8.25 µM
TGI (OVCAR-5 ovarian): 35.4 µM
GI50 (NCI-H23 lung): 3.57 µM
TGI (NCI-H23 lung): 25.2 µM
GI50 (U251 CNS): 2.86 µM
TGI (U251 CNS): 15.3 µM
GI50 (M14 melanoma): 4.48 µM
TGI (M14 melanoma): 40.5 µM
GI50 (SF-268 CNS): 3.32 µM
TGI (SF-268 CNS): 14.7 µM
GI50 (HCT-116 colon): 1.89 µM
TGI (HCT-116 colon): 4.87 µM
GI50 (IGROV1 ovarian): 3.58 µM
TGI (IGROV1 ovarian): 18.2 µM
GI50 (SF-539 CNS): 2.12 µM
TGI (SF-539 CNS): 5.53 µM
GI50 (OVCAR-8 ovarian): 3.58 µM
TGI (OVCAR-8 ovarian): > 49.6 µM
GI50 (OVCAR-4 ovarian): 4.03 µM
TGI (OVCAR-4 ovarian): > 24.4 µM
GI50 (MDA-MB-435): 3.19 µM
TGI (MDA-MB-435): > 62.2 µM
GI50 (NCI-H522 lung): 2.6 µM
TGI (NCI-H522 lung): 10.7 µM
GI50 (SK-MEL-28 melanoma): 1.99 µM
TGI (SK-MEL-28 melanoma): 4.51 µM
GI50 (RXF 393 renal): 5.85 µM
TGI (RXF 393 renal): 28.6 µM
GI50 (NCI-H226 lung): 5.25 µM
TGI (NCI-H226 lung): > 59.5 µM
GI50 (SK-OV-3 ovarian): 4.32 µM
TGI (SK-OV-3 ovarian): 48.6 µM
GI50 (HCC-2998 colon): 2.39 µM
TGI (HCC-2998 colon): 6.14 µM
GI50 (HOP-62 NSCLC): 8.85 µM
TGI (HOP-62 NSCLC): > 100 µM
GI50 (MOLT-4 leukemia): 2.87 µM
TGI (MOLT-4 leukemia): > 23.8 µM
GI50 (MCF7 breast): 2.66 µM
TGI (MCF7 breast): 22 µM
GI50 (SN12C renal): 3.47 µM
TGI (SN12C renal): > 100 µM
GI50 (HL-60(TB) leukemia): 2.5 µM
TGI (HL-60(TB) leukemia): 16 µM
GI50 (KM12 colon): 1.7 µM
TGI (KM12 colon): 3.57 µM
GI50 (SR leukemia): 2.24 µM
TGI (SR leukemia): > 100 µM
GI50 (BT-549 breast): 3.32 µM
TGI (BT-549 breast): 22.8 µM
GI50 (A498 renal): 3.51 µM
TGI (A498 renal): 13.1 µM
GI50 (OVCAR-3 ovarian): 2.48 µM
TGI (OVCAR-3 ovarian): 7.37 µM
GI50 (EKVX NSCLC): 8.4 µM
TGI (EKVX NSCLC): > 100 µM
GI50 (UACC-62 melanoma): 3.18 µM
TGI (UACC-62 melanoma): 16.1 µM
GI50 (SK-MEL-2 melanoma): 4.72 µM
TGI (SK-MEL-2 melanoma): > 58.1 µM
GI50 (HCT-15 colon): 2.64 µM
TGI (HCT-15 colon): 32.8 µM
GI50 (SK-MEL-5 melanoma): 2.69 µM
TGI (SK-MEL-5 melanoma): 11 µM
GI50 (MALME-3M melanoma): 3.98 µM
TGI (MALME-3M melanoma): 24.4 µM
GI50 (DU-145 prostate): 3.02 µM
TGI (DU-145 prostate): 9.27 µM
GI50 (HOP-92 NSCLC): 2.61 µM
TGI (HOP-92 NSCLC): 20.5 µM
GI50 (NCI/ADR-RES ovarian): 2.97 µM
TGI (NCI/ADR-RES ovarian): > 31.4 µM
GI50 (SW-620 colon): 2.42 µM
TGI (SW-620 colon): 6.22 µM
GI50 (UO-31 renal): 3.64 µM
TGI (UO-31 renal): 40.3 µM
GI50 (PC-3 prostate): 2.91 µM
TGI (PC-3 prostate): 14.2 µM
GI50 (TK-10 renal): 7.38 µM
TGI (TK-10 renal): > 85.4 µM
GI50 (HS 578T breast): 3.24 µM
TGI (HS 578T breast): > 27.2 µM
GI50 (SNB-19 CNS): 4.59 µM
TGI (SNB-19 CNS): 43.9 µM
GI50 (MDA-MB-231 breast): 4.06 µM
TGI (MDA-MB-231 breast): > 54.3 µM
GI50 (786-0 renal): 4.32 µM
TGI (786-0 renal): 24.5 µM
GI50 (COLO 205 colon): 4.79 µM
TGI (COLO 205 colon): 15.3 µM
GI50 (CCRF-CEM leukemia): 1.19 µM
TGI (CCRF-CEM leukemia): 5.81 µM
GI50 (T-47D breast): 3.27 µM
TGI (T-47D breast): 40.8 µM

CC(=O)NC(C(=O)N1CCCC1C(=O)OCc1ccccc1)C(C)C (stereo not drawn) (Ac-Val-Pro-OBn; configuration not given here)
GI50 (MDA-N): 80.7 µg/mL
GI50 (CCRF-CEM leukemia): 52 µg/mL

Clc1ccc(/C=N/Nc2nnc3c4ccccc4c4ncccc4c3n2)cc1
TGI (SF-295 CNS): > 10 µM
TGI (UACC-257 melanoma): > 10 µM
TGI (HT29 colon): > 10 µM
TGI (SNB-75 CNS): > 10 µM
TGI (CAKI-1 renal): > 10 µM
TGI (A549 NSCLC): > 10 µM
TGI (RPMI-8226 leukemia): > 10 µM
TGI (K-562 leukemia): > 10 µM
TGI (NCI-H23 lung): > 10 µM
TGI (M14 melanoma): > 10 µM
TGI (SF-268 CNS): > 10 µM
TGI (IGROV1 ovarian): > 10 µM
TGI (OVCAR-8 ovarian): > 10 µM
TGI (MDA-N): > 10 µM
TGI (SK-MEL-28 melanoma): > 10 µM
TGI (RXF 393 renal): > 10 µM
TGI (SK-OV-3 ovarian): > 10 µM
TGI (HCC-2998 colon): > 10 µM
TGI (HOP-62 NSCLC): > 10 µM
TGI (MOLT-4 leukemia): > 10 µM
TGI (MCF7 breast): > 10 µM
TGI (SN12C renal): > 10 µM
TGI (HL-60(TB) leukemia): > 10 µM
TGI (KM12 colon): > 10 µM
TGI (SR leukemia): > 10 µM
TGI (EKVX NSCLC): > 10 µM
TGI (UACC-62 melanoma): > 10 µM
TGI (HCT-15 colon): > 10 µM
TGI (SK-MEL-5 melanoma): > 10 µM
TGI (MALME-3M melanoma): > 10 µM
TGI (DU-145 prostate): > 10 µM
TGI (SW-620 colon): > 10 µM
TGI (PC-3 prostate): > 10 µM
TGI (TK-10 renal): > 10 µM
TGI (MDA-MB-231 breast): > 10 µM
TGI (786-0 renal): > 10 µM
TGI (COLO 205 colon): > 10 µM
TGI (T-47D breast): > 10 µM
